According to ChEMBL document CHEMBL1201862, “PubChem BioAssay data set” (2004):
The source made the active and inactive calls.

How the values were obtained:
[1] = biological target: Lysine-specific demethylase 4C (Homo sapiens, UniProt Q9H3R0); experiment: GASC-1 (JMJD2C) histone demethylase inhibitors, dose response, biochemical, DELFIA europium, cherry-picked samples (AID 488835); format: functional
[2] = cytotoxicity toward NIH3T3 fibroblasts, dose response, counter-screen, cell-based, ATP luminescence, mouse fibroblasts (AID 2010); format: functional;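 note: cells exposed to compound for about 90 hours before reading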
[3] = inhibitors of intracellular T. cruzi replication, confirmation, NIH3T3 host cells, beta-gal luminescence (AID 2044); format: functional, cell-based;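 note: intracellular parasites grown in NIH/3T3 mouse fibroblasts as host cells; luminescent beta-galactosidase reporter signal from transgenic T. cruzi replicating inside host cells; inhibitors lower the luminescence signal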
[4] = Luminescence Cell-Based/Microorganism Confirmation at Dose of Inhibitors of Trypanosoma cruzi Infection. [Related pubchem assays: 1885, 1968 ]; format: functional
[5] = inhibitors of Trypanosoma cruzi host-cell infection, confirmation, beta-gal luminescence, NIH3T3 host cells (AID 2630); format: functional, cell-based; conditions: Mus musculus
[6] = Luminescence Cell-Based Secondary HTS screen to identify cytotoxic compounds of NIH3T3 cells. [Related pubchem assays: 1885, 1968 ]; format: functional
[7] = Luminescence Cell-Based Dose Retest to Confirm Inhibitors of Cancer Stem Cells. [Related pubchem assays (depositor defined):AID2717, AID2721]; format: functional; conditions: Homo sapiens
[8] = cytotoxicity in HMLE control line with eGFP shRNA, dose response, counter-screen for HMLE_sh_ECad selective toxicity project, cell-based, HMLE_sh_eGFP, luminescence (AID 463074); format: functional, Homo sapiens;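 note: HMLE human mammary epithelial cells expressing control shRNA against eGFP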

Sequence of Lysine-specific demethylase 4C (Q9H3R0 whole entry): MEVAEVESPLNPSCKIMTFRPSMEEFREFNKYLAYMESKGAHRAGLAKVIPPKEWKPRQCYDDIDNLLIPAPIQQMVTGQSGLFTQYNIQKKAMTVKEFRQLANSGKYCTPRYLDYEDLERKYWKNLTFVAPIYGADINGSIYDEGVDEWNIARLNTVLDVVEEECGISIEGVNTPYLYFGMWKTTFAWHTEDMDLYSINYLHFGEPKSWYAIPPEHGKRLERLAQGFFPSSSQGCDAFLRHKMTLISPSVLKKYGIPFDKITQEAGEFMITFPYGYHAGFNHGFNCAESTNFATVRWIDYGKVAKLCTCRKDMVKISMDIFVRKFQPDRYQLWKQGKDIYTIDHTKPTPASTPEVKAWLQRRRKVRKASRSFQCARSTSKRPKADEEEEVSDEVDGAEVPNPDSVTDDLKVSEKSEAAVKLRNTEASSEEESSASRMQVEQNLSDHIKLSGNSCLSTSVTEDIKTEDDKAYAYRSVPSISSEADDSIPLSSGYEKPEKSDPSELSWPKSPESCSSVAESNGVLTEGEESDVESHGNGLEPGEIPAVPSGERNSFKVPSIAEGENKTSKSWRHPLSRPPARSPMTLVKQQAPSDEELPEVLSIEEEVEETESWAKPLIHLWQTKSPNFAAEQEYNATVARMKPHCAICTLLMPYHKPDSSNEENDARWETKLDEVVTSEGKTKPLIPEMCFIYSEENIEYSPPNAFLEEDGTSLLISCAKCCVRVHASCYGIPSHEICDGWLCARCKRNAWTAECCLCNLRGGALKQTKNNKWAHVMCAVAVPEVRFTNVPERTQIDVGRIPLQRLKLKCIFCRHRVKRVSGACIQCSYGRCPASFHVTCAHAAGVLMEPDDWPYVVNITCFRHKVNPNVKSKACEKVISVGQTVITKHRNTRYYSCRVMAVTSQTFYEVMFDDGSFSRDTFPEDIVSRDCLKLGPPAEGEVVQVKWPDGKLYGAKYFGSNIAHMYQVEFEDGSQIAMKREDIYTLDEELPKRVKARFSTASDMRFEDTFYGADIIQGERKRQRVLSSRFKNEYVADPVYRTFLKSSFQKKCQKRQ

COc1ccc(-c2nc(C#N)c(NCc3ccc(F)cc3)o2)cc1OC
AC50 [1]: 59.4 µM (active)

O=S(=O)(NCC(c1cccnc1)N1CCN(c2ccc(F)cc2)CC1)c1ccccc1 (centres undefined)
EC50 [2]: > 60 µM (not active)
EC50 [3]: < 0.1 µM (active)
EC50 [4]: 0.057 µM (active)
EC50 [5]: 0.057 µM (active)
EC50 [6]: > 195 µM (not active)
EC50 (cells): 0.066 µM (active)

COc1cc(OC)cc(-c2c(-c3cccs3)c3cc(-c4ccc(N(C)C)nc4)ccc3n2C)c1
AC50 [7]: 28.5 µM (active)
AC50 [8]: 109 µM (active)
